Data from ChEMBL document CHEMBL1201862, “PubChem BioAssay data set” (2004).
“And” between values parts separate entries of the source, which are not always exact repeats. Identical values can stand only once.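 Method: 48-hour compound exposure of cells in 96-well plates, five concentrations, linear interpolation of endpoints. At the GI50, growth is halved.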 The source made the active and inactive calls. No stated cut-off is given here; in the data, active = GI50 up to about 1.1 µM and inactive = higher.

Legend:
Assay in all cases: NCI tumour cell line growth inhibition, 48 h
SN12C = tested on: SN12C
CCRF-CEM = tested on: CCRF-CEM
K562 = tested on: K562
Malme-3M = tested on: Malme-3M
CAKI-1 = tested on: CAKI-1
OVCAR-5 = tested on: OVCAR-5
UACC-62 = tested on: UACC-62
OVCAR-8 = tested on: OVCAR-8
HL-60 = tested on: HL-60
SNB-19 = tested on: SNB-19
MOLT-4 = tested on: MOLT-4
U-251 = tested on: U-251
TK-10 = tested on: TK-10
M14 = tested on: M14
HT-29 = tested on: HT-29
SW-620 = tested on: SW-620
UO-31 = tested on: UO-31
RXF 393 = tested on: RXF 393
SR = tested on: SR

Measured: GI50

COc1ccccc1/N=N/C(C(=O)c1ccccc1)C(=O)c1ccccc1
inactive: SN12C 17.2 µM | CCRF-CEM 7.91 µM | K562 16.9 µM | Malme-3M 25.4 µM | CAKI-1 25.2 µM | OVCAR-5 32.1 µM | UACC-62 13.2 µM | OVCAR-8 21.5 µM | HL-60 7.8 µM | SNB-19 17.2 µM | MOLT-4 9.48 µM | U-251 18.5 µM | TK-10 50.2 µM | M14 15 µM | HT-29 25.9 µM | SW-620 25.1 µM | UO-31 12.8 µM

CC(=O)O[C@H]1CC[C@@]2(C)C(=C/C(=N\[N+](=O)[O-])[C@H]3C4CCC([C@H](C)CCCC(C)C)[C@@]4(C)CCC32)C1 (stereo partly specified)
inactive: SN12C > 100 µM | K562 > 100 µM | Malme-3M > 100 µM | RXF 393 > 100 µM | CAKI-1 > 100 µM | OVCAR-5 > 100 µM | UACC-62 > 100 µM | OVCAR-8 > 100 µM | HL-60 > 100 µM | SNB-19 > 100 µM | MOLT-4 > 100 µM | TK-10 > 100 µM | M14 > 100 µM | HT-29 > 100 µM | SW-620 > 100 µM | UO-31 > 100 µM

Cn1nc(-c2ccccc2)c(C(=O)/C=C/c2ccccc2)c(N2CCCCC2)c1=O
inactive: SN12C > 100 µM | CCRF-CEM 3.72 µM | K562 4.7 µM | RXF 393 12.8 µM | CAKI-1 22.2 µM | UACC-62 15.9 µM | OVCAR-8 42 µM | HL-60 2.72 µM | SNB-19 > 100 µM | MOLT-4 2.36 µM | U-251 > 100 µM | TK-10 > 100 µM | M14 47.6 µM | HT-29 11.7 µM | SW-620 34 µM | UO-31 17.5 µM

O=C(CC(=O)Nc1ccc(Cl)cc1)NNCC(=O)Nc1nc(-c2ccccc2)cs1
inactive: SN12C > 100 µM | CCRF-CEM > 100 µM | K562 72.4 µM | RXF 393 > 100 µM | UACC-62 47.5 µM | OVCAR-8 > 100 µM | HL-60 > 100 µM | SNB-19 > 100 µM | MOLT-4 > 100 µM | U-251 > 100 µM | TK-10 > 100 µM | M14 > 100 µM | HT-29 > 100 µM | SW-620 > 100 µM

CC(=O)NC(CC(C)C)C(=O)NC(Cc1ccccc1)C(=S)N1CCCC1 (stereo unspecified)
inactive: SN12C > 100 µM | CCRF-CEM > 100 µM | K562 > 100 µM | Malme-3M > 100 µM | RXF 393 > 100 µM | CAKI-1 > 100 µM | OVCAR-5 > 100 µM | UACC-62 > 100 µM | OVCAR-8 > 100 µM | HL-60 > 100 µM | SNB-19 > 100 µM | MOLT-4 > 100 µM | U-251 > 100 µM | TK-10 > 100 µM | M14 > 100 µM | HT-29 > 100 µM | SW-620 > 100 µM | UO-31 > 100 µM

C=C[C@@]1(C)CC(=O)[C@]2(O)[C@@]3(C)[C@@H](OC(C)=O)CCC(C)(C)[C@@H]3[C@H](OC(C)=O)[C@H](OC(C)=O)[C@@]2(C)O1
inactive: SN12C > 100 µM | K562 > 100 µM | CAKI-1 > 100 µM | OVCAR-5 > 100 µM | UACC-62 > 100 µM | OVCAR-8 > 100 µM | SR > 100 µM | SNB-19 > 100 µM | MOLT-4 51.4 µM | U-251 > 100 µM | M14 > 100 µM | HT-29 > 100 µM | SW-620 > 100 µM | UO-31 > 100 µM

COC(=O)C1CCc2c1c(=O)n1c([nH]c3ccccc31)c2C#N (stereo unspecified)
inactive: CCRF-CEM > 100 µM | K562 > 100 µM | Malme-3M > 100 µM | RXF 393 > 100 µM | CAKI-1 > 100 µM | OVCAR-5 > 100 µM | UACC-62 > 100 µM | OVCAR-8 > 100 µM | HL-60 > 100 µM | SNB-19 > 100 µM | U-251 > 100 µM | TK-10 > 100 µM | M14 > 100 µM | HT-29 > 100 µM | SW-620 > 100 µM | UO-31 > 100 µM

CC(C)(C)c1ccc(OC2CCO2)cc1 (stereo unspecified)
inactive: SN12C 18.7 µM | CCRF-CEM 24.7 µM | K562 17.3 µM | Malme-3M 67 µM | CAKI-1 38.1 µM | OVCAR-5 32.7 µM | UACC-62 24 µM | OVCAR-8 38.6 µM | SNB-19 52.2 µM | MOLT-4 38.1 µM | U-251 18.7 µM | TK-10 42.4 µM | M14 42.6 µM | HT-29 23.1 µM | SW-620 17.1 µM | UO-31 58.2 µM

CC1OC(OC2C(OC(=O)[C@]34CCC(C)(C)C[C@H]3C3=CC[C@@H]5[C@@]6(C)CC[C@H](OC7OC(C(=O)O)C(O)C(O)C7O)C(C)(C)[C@@H]6CC[C@@]5(C)[C@]3(C)CC4)OCC(O)C2O)C(O)C(O)C1OC1OCC(O)C(O)C1O (stereo partly specified)
inactive: SN12C 22.1 µM and 19.4 µM | CCRF-CEM 77.4 µM | Malme-3M 34.7 µM and 28.3 µM | RXF 393 > 100 µM and 70.1 µM | CAKI-1 30 µM and 40.4 µM | OVCAR-5 48.2 µM and 31 µM | UACC-62 39.4 µM and 28 µM | OVCAR-8 > 100 µM | HL-60 21.8 µM | U-251 39.3 µM and 75.2 µM | M14 17.5 µM and 19.2 µM | HT-29 15.4 µM and 28.2 µM | UO-31 16.8 µM and 22.1 µM

COc1cc(/C=C\c2ccccn2)cc(OC)c1OC
inactive: SN12C > 100 µM | CCRF-CEM > 100 µM | K562 32.1 µM | Malme-3M > 100 µM | RXF 393 > 100 µM | CAKI-1 > 100 µM | OVCAR-5 > 100 µM | UACC-62 60 µM | OVCAR-8 > 100 µM | HL-60 31 µM | SNB-19 > 100 µM | MOLT-4 61.9 µM | U-251 > 100 µM | TK-10 > 100 µM | M14 55.6 µM | HT-29 46.3 µM | SW-620 41.8 µM | UO-31 56.9 µM

COC(=O)/C(C)=C(/CCC1(C)OCCO1)O[Si](C)(C)C
inactive: SN12C > 100 µM | CCRF-CEM > 100 µM | K562 > 100 µM | Malme-3M > 100 µM | RXF 393 > 100 µM | CAKI-1 > 100 µM | OVCAR-5 > 100 µM | UACC-62 > 100 µM | OVCAR-8 > 100 µM | HL-60 > 100 µM | SNB-19 > 100 µM | MOLT-4 > 100 µM | U-251 > 100 µM | TK-10 > 100 µM | M14 > 100 µM | HT-29 > 100 µM | SW-620 > 100 µM | UO-31 95.3 µM
